From ChEMBL document CHEMBL1155915, “Anticonvulsant activity of some xanthone derivatives” (Bioorg Med Chem, 2008)
Calls of active or inactive are those of the source. The rule behind the calls is not given here.

Experiments:
[1] = system: Mus musculus; assay: Anticonvulsant activity against maximal electroshock-induced seizures in mouse at 30 mg/kg, ip after 4 hrs; assay type: functional, organism-based; set-up: dose 30 mg/kg
[2] = system: Mus musculus; assay: Neurotoxicity in mouse at 100 mg/kg, ip after 0.5 hrs by rotarod test; assay type: toxicity, organism-based; set-up: dose 100 mg/kg, route intraperitoneal; conditions: in vivo
[3] = system: Mus musculus; assay: Anticonvulsant activity against maximal electroshock-induced seizures in mouse at 30 mg/kg, ip after 0.5 hrs; assay type: functional, organism-based; set-up: dose 30 mg/kg
[4] = system: Mus musculus; assay: Anticonvulsant activity against scMet-induced seizures in mouse at 100 mg/kg, ip after 4 hrs; assay type: functional, organism-based; set-up: dose 100 mg/kg
[5] = system: Mus musculus; assay: Neurotoxicity in mouse at 30 mg/kg, ip after 4 hrs by rotarod test; assay type: toxicity, organism-based; set-up: dose 30 mg/kg, route intraperitoneal; conditions: in vivo
[6] = system: Mus musculus; assay: Anticonvulsant activity against scMet-induced seizures in mouse at 30 mg/kg, ip after 0.5 hrs; assay type: functional, organism-based; set-up: dose 30 mg/kg
[7] = system: Mus musculus; assay: Neurotoxicity in mouse at 300 mg/kg, ip after 4 hrs by rotarod test; assay type: toxicity, organism-based; set-up: dose 300 mg/kg, route intraperitoneal; conditions: in vivo
[8] = system: Mus musculus; assay: Anticonvulsant activity against scMet-induced seizures in mouse at 100 mg/kg, ip after 0.5 hrs; assay type: functional, organism-based; set-up: dose 100 mg/kg
[9] = system: Mus musculus; assay: Anticonvulsant activity against maximal electroshock-induced seizures in mouse at 100 mg/kg, ip after 0.5 hrs; assay type: functional, organism-based; set-up: dose 100 mg/kg
[10] = system: Mus musculus; assay: Anticonvulsant activity against maximal electroshock-induced seizures in mouse at 100 mg/kg, ip after 4 hrs; assay type: functional, organism-based; set-up: dose 100 mg/kg
[11] = system: Mus musculus; assay: Anticonvulsant activity against scMet-induced seizures in mouse at 300 mg/kg, ip after 4 hrs; assay type: functional, organism-based; set-up: dose 300 mg/kg
[12] = system: Mus musculus; assay: Neurotoxicity in mouse at 300 mg/kg, ip after 0.5 hrs by rotarod test; assay type: toxicity, organism-based; set-up: dose 300 mg/kg, route intraperitoneal; conditions: in vivo
[13] = system: Mus musculus; assay: Anticonvulsant activity against scMet-induced seizures in mouse at 300 mg/kg, ip after 0.5 hrs; assay type: functional, organism-based; set-up: dose 300 mg/kg
[14] = system: Mus musculus; assay: Anticonvulsant activity against maximal electroshock-induced seizures in mouse at 300 mg/kg, ip after 0.5 hrs; assay type: functional, organism-based; set-up: dose 300 mg/kg
[15] = system: Mus musculus; assay: Neurotoxicity in mouse at 30 mg/kg, ip after 0.5 hrs by rotarod test; assay type: toxicity, organism-based; set-up: dose 30 mg/kg, route intraperitoneal; conditions: in vivo
[16] = system: Mus musculus; assay: Anticonvulsant activity against scMet-induced seizures in mouse at 30 mg/kg, ip after 4 hrs; assay type: functional, organism-based; set-up: dose 30 mg/kg
[17] = system: Mus musculus; assay: Anticonvulsant activity against maximal electroshock-induced seizures in mouse at 300 mg/kg, ip after 4 hrs; assay type: functional, organism-based; set-up: dose 300 mg/kg
[18] = system: Mus musculus; assay: Neurotoxicity in mouse at 100 mg/kg, ip after 4 hrs by rotarod test; assay type: toxicity, organism-based; set-up: dose 100 mg/kg, route intraperitoneal; conditions: in vivo

| SMILES | Activity [1] | Neurotoxicity [2] | Activity [3] | Activity [4] | Neurotoxicity [5] | Activity [6] | Neurotoxicity [7] | Activity [8] | Activity [9] | Activity [10] | Activity [11] | Neurotoxicity [12] | Activity [13] | Activity [14] | Neurotoxicity [15] | Activity [16] | Activity [17] | Neurotoxicity [18] |
| --- | --- | --- | --- | --- | --- | --- | --- | --- | --- | --- | --- | --- | --- | --- | --- | --- | --- | --- |
| CCOC(=O)CNC(=O)c1ccc2oc3ccccc3c(=O)c2c1 | inactive | Not Active | inactive | inactive | Not Active | inactive | Not Active | inactive | inactive | inactive | inactive | Not Active | inactive | inactive | Not Active | inactive | inactive | Not Active |
| C[C@@H](CO)N(C)Cc1ccc2oc3cc(Cl)ccc3c(=O)c2c1 | inactive |  | inactive | inactive |  | inactive | Neurotoxic | inactive | Active |  | inactive | Neurotoxic | inactive | Active |  | inactive | Active | Not Active |
| O=c1c2ccc(Cl)cc2oc2ccc(CNCCCCCO)cc12 | inactive |  | inactive | inactive | Not Active | inactive |  | inactive |  | inactive | inactive | Neurotoxic | inactive | Active |  | inactive | Active | Not Active |
| CC(CO)NC(=O)c1ccc2oc3ccccc3c(=O)c2c1 (centres undefined) | inactive | Not Active | inactive | inactive | Not Active | inactive | Not Active | inactive | inactive | inactive | inactive | Not Active | inactive | inactive | Not Active | inactive | inactive | Not Active |
| CC[C@H](CO)NCc1ccc2oc3cc(Cl)ccc3c(=O)c2c1 | inactive |  | inactive | inactive | Not Active | inactive |  | inactive |  | inactive | inactive | Neurotoxic | inactive | Active | Not Active | inactive | Active |  |
| CC(CO)NC(=O)c1ccc2oc3cc(Cl)ccc3c(=O)c2c1 (racemic) | inactive | Not Active | inactive | inactive | Not Active | inactive | Not Active | inactive | inactive | inactive | inactive | Not Active | inactive | inactive |  | inactive | inactive | Not Active |
| CC(CCl)N(C)Cc1ccc2oc3cc(Cl)ccc3c(=O)c2c1.Cl (centres undefined) | inactive |  | inactive | inactive | Not Active | inactive | Neurotoxic | inactive |  | inactive | inactive | Neurotoxic | inactive | Active | Not Active | inactive | inactive |  |
| O=C(N[C@@H]1CCCC[C@H]1O)c1ccc2oc3ccccc3c(=O)c2c1 (racemic) | inactive | Not Active | inactive | inactive | Not Active | inactive | Not Active | inactive | inactive |  | inactive |  | inactive | inactive | Not Active | inactive | inactive | Not Active |
| C[C@H](O)CNCc1ccc2oc3cc(Cl)ccc3c(=O)c2c1 | Active |  | inactive | inactive | Not Active | inactive |  | inactive | Active | Active | inactive |  | inactive | Active | Not Active | inactive | inactive | Not Active |
| C[C@@H](O)CNCc1ccc2oc3cc(Cl)ccc3c(=O)c2c1 | Active |  | inactive | inactive |  | inactive | Neurotoxic | inactive | Active | Active | inactive | Neurotoxic | inactive | Active |  | inactive | inactive |  |
| O=c1c2ccc(Cl)cc2oc2ccc(CNCCO)cc12 | inactive |  | inactive | inactive | Not Active | inactive | Not Active | inactive |  | inactive | inactive |  | inactive | Active |  | inactive | Active | Not Active |
| CN(CCO)Cc1ccc2oc3cc(Cl)ccc3c(=O)c2c1 | inactive |  | inactive | inactive | Not Active | inactive | Neurotoxic | inactive |  | inactive | inactive | Neurotoxic | inactive | inactive | Not Active | inactive |  | Not Active |
